Literature values, collected in patent US20200337300A1, “GREASE-LIKE GEL FOR REPELLING INSECTS AND PREVENTING UNDESIRABLE BEHAVIOR IN HOOFED ANIMALS” (Pacific Tech Industries, Inc., priority 2010, published 2020).

Key:
[1] = for solubility in organic solvents: most organic solvents
[2] = pungency of the pure capsaicinoid

Row | SMILES | solubility in organic solvents [1] | solubility in water [1] | Scoville heat units [2]
1 | C=CCN=C=S [Allyl isothiocyanate] | soluble in most organic solvents | slightly soluble in water | 
2 | COc1cc(CNC(=O)CCCC/C=C/C(C)C)ccc1O [Capsaicin, 8-methyl-N-vanillyl-6-nonenamide] |  |  | 16,000,000 Scoville heat units
3 | COc1cc(CNC(=O)CCCCC/C=C/C(C)C)ccc1O [Homocapsaicin] |  |  | 8,600,000 Scoville heat units
4 | COc1cc(CNC(=O)CCCCCCCC(C)C)ccc1O [Homodihydrocapsaicin] |  |  | 8,600,000 Scoville heat units
5 | C=CCS[S+]([O-])CC=C (stereo not shown) [allicin] | soluble in most organic solvents | slightly soluble in water | 
